For one data set, the system named is dogs. To be noted: intravenal administration to dogs; cited from earlier work.
The test system of data set [1] is rats. To be noted: oral administration to rats; cited from earlier work.
In data set [2] the test system is rats. The settings on record: oral administration to rats; cited from earlier work. The source holds these as a separate data set.

SMILES strings stand for the structures. Bounds are passed on as bounds.

The values that follow come from patent US20060058374A1, “Urotensin II receptor agents” (priority 2002, published 2006).

As usually defined, the melting point is the temperature of the solid-liquid transition. Consider `CN(C)CCC1(c2ccc(Oc3ccccc3)cc2)Cc2ccccc2C(=O)O1.Cl` (centres unmarked), for which the melting point is 245.2 to 246.3 °C (dec.).

As to `Cc1cccc2c1CC(CCN(C)C)(c1ccccc1)OC2=O.Cl` (centres unmarked), the melting point was > 250 °C (dec.).

Take `COc1ccc(C2(CCN(C)C)Cc3ccccc3C(=O)O2)cc1` (centres unmarked) [3-(2-dimethylamino-ethyl)-3,4-dihydro-3-(p-methoxy-phenyl)-isocoumarin]: the anti-hypertensive activity result with dogs is recorded as “anti-hypertensive activity”. Further, in the data set on rats [1], the diuretic action entry is reported as “diuretics”.

Regarding `CN(C)CCC1(c2ccccc2)Cc2ccccc2C(=O)O1` (centres unmarked) [3-(2-dimethylamino-ethyl)-3,4-dihydro-3-phenyl-isocoumarin], in the data set on dogs, the anti-hypertensive activity result is listed as “anti-hypertensive activity”. Also, the diuretic action result in the data set on rats [1] is “diuretics”.

For `Cl.O=C1OC(CCN2CCCCC2)(c2ccc(Cl)cc2)Cc2ccccc21` (centres unmarked), the melting point is > 250 °C (dec.).

Regarding `CN(C)CCC1(c2cccs2)Cc2ccccc2C(=O)O1.Cl` (centres unmarked), the melting point is > 250 °C (dec.).

Take `CN(C)CCC1(c2cccc(F)c2)Cc2ccccc2C(=O)O1.Cl` (centres unmarked): the melting point is > 250 °C (dec.).

`CN(C)CCC1(c2ccccc2)Cc2ccccc2CO1` (centres unmarked) [3-(2-dimethylamino-ethyl)-3-(phenyl)-isochroman]: the anti-hypertensive activity entry in the data set with dogs is recorded as “anti-hypertensive activity”.

As to `CC1c2ccccc2C(=O)OC1(CCN(C)C)c1ccc(Cl)cc1.Cl` (centres unmarked), the melting point is > 250 °C (dec.).

As for `CN(C)CCC1(c2ccccc2Cl)Cc2ccccc2C(=O)O1.Cl` (centres unmarked), the melting point is > 250 °C (dec.).

Regarding `CN1CCN(CCC2(c3ccc(Cl)cc3)Cc3ccccc3C(=O)O2)CC1.Cl` (centres unmarked), the melting point was > 250 °C (dec.).

For `CC(CN(C)C)C1(c2ccccc2)Cc2ccccc2C(=O)O1` (centres unmarked) [3-(2-dimethylamino-(1-methyl-ethyl))-3,4-dihydro-3-phenyl-isocoumarin], the antihypertensive action entry with rats [2] was “ineffective”. The diuretic action entry with rats [1] is given as “diuretics”.

`COc1cccc(C2(CCN(C)C)Cc3ccccc3C(=O)O2)c1.Cl` (centres unmarked): the melting point is > 250 °C (dec.).

For `Cc1ccc2c(c1)C(=O)OC(CCN(C)C)(c1ccccc1)C2.Cl` (centres unmarked), the melting point was > 250 °C (dec.).

On to `Cc1cccc2c1C(=O)OC(CCN(C)C)(c1ccc(Cl)cc1)C2.Cl` (centres unmarked), for which the melting point was > 250 °C (dec.).

Take `COc1cccc2c1CC(CCN(C)C)(c1ccccc1)OC2=O.Cl` (centres unmarked): the melting point is > 250 °C (dec.).

Regarding `COc1ccc(C2(CCN(C)C)Cc3ccccc3C(=O)O2)cc1.Cl` (centres unmarked), the melting point was > 250 °C (dec.).

Turning to `CN(C)CCC1(c2cccc(Cl)c2)Cc2ccccc2C(=O)O1.Cl` (centres unmarked), the melting point is > 250 °C (dec.).

As for `COc1ccccc1C1(CCN(C)C)Cc2ccccc2C(=O)O1.Cl` (centres unmarked), the melting point is > 250 °C (dec.).

Consider `CN(C)CCC1(c2ccccc2)Cc2ccccc2C(=O)O1.Cl` (centres unmarked), for which the melting point is > 250 °C (dec.).

Take `CN(C)CCCC1(c2ccc(Cl)cc2)Cc2ccccc2C(=O)O1.Cl` (centres unmarked): the melting point is > 250 °C (dec.).

Consider `CCN(CC)CCC1(c2ccc(Cl)cc2)Cc2ccccc2C(=O)O1.Cl` (centres unmarked), for which the melting point is > 250 °C (dec.).

Turning to `Cl.O=C1OC(CCN2CCCC2)(c2ccc(Cl)cc2)Cc2ccccc21` (centres unmarked), the melting point is > 250 °C (dec.).
